Measured values as given in patent EP0753512B1, “N,N,-diethyl-8,8-dipropyl-2-azaspiro[4.5]decane-2-propanamin] dimaleate salt” (AnorMED Inc, priority 1995, dated 1997).

How the values were obtained:
[1] = Relative solubilities in water, HCl and methanol; format: physicochemical
[2] = Hygroscopicity: rate of moisture absorption, Integrated Microbalance System; format: physicochemical; conditions: for % Weight Gain (Moisture Absorption): 25 °C; for hygroscopicity: statement in words, upon storage
Protocol: The rate of moisture absorption of Compound B and Compound C were tested individually in an Integrated Microbalance System, MODEL MB 300 G (VTI Corporation, Hialeah, Florida) using the accompanying Software Manual. Table 2(a) [table]

[3] = organic solvent or mixture, Solvent: methanol

Row | SMILES | solubility ([1]; Solvent: 0.1% HCl) | solubility ([1]; Solvent: Water) | solubility [1, 3] | % Weight Gain (Moisture Absorption) ([2]; 0 % relative humidity) | % Weight Gain (Moisture Absorption) ([2]; 10 % relative humidity) | % Weight Gain (Moisture Absorption) ([2]; 15 % relative humidity) | % Weight Gain (Moisture Absorption) ([2]; 20 % relative humidity) | % Weight Gain (Moisture Absorption) ([2]; 25 % relative humidity) | % Weight Gain (Moisture Absorption) ([2]; 30 % relative humidity) | % Weight Gain (Moisture Absorption) ([2]; 35 % relative humidity) | % Weight Gain (Moisture Absorption) ([2]; 40 % relative humidity) | % Weight Gain (Moisture Absorption) ([2]; 45 % relative humidity) | % Weight Gain (Moisture Absorption) ([2]; 50 % relative humidity) | % Weight Gain (Moisture Absorption) ([2]; 55 % relative humidity) | % Weight Gain (Moisture Absorption) ([2]; 60 % relative humidity) | % Weight Gain (Moisture Absorption) ([2]; 65 % relative humidity) | % Weight Gain (Moisture Absorption) ([2]; 70 % relative humidity) | % Weight Gain (Moisture Absorption) ([2]; 75 % relative humidity) | % Weight Gain (Moisture Absorption) ([2]; 80 % relative humidity) | % Weight Gain (Moisture Absorption) ([2]; 85 % relative humidity) | further results
1 | CCCC1(CCC)CCC2(CCN(CCCN(CC)CC)C2)CC1.Cl.Cl [Compound B, N,N-diethyl-8,8-dipropyl-2-azaspiro[4.5]decane-2-propanamine dihydrochloride, reference compound] | > 100 mg/mL | > 100 mg/mL | > 100 mg/mL | 0% | 0.20% | 1.81% | 2.17% | 2.84% | 3.74% | 3.15% | 3.30% | 4.74% | 5.49% | 9.07% | 9.26% | 9.50% | 15.47% | 31.30% | 36.53% | 44.16% | hygroscopicity [2]: hygroscopic
2 | CCCC1(CCC)CCC2(CCN(CCCN(CC)CC)C2)CC1.O=C(O)/C=C\C(=O)O.O=C(O)/C=C\C(=O)O [Compound C, N,N-diethyl-8,8-dipropyl-2-azaspiro[4.5]decane-2-propanamine dimaleate] | > 100 mg/mL | > 100 mg/mL | > 100 mg/mL | 0% | -0.21% | -0.18% | -0.08% | -0.12% | -0.08% | -0.08% | -0.08% | -0.05% | -0.04% | 0.04% | 0.1% | 0.18% | 0.41% | 0.56% | 0.89% | 1.70% | % Weight Gain (Moisture Absorption) ([2]; 90 % relative humidity): 5.37%; % Weight Gain (Moisture Absorption) ([2]; 95 % relative humidity): 42.88%; hygroscopicity [2]: far less hygroscopic
